One may read the melting point as the temperature of the solid-liquid transition. By Ki is commonly meant a dissociation constant, usually derived from enzyme kinetics or from competition with a known ligand.

The values that follow come from patent publication US20050228180A1, “Alpha, omega-dicarboximide derivatives as useful uro-selective a1a adrenoceptor blockers” (priority 2002, published 2005).

Series [1] deals with conscious beagle dogs. The series is described as follows: In vivo uroselectivity study: phenylephrine response on MAP and IUP. The arrangement: species or system dog. To be noted: 3 μg/kg p.o. The text has this: In order to assess the uroselectivity in vivo, the effects of these compounds were studied on mean arterial pressure (MAP) and intraurethral pressure (UP) in conscious beagle dogs as per the method of Brune et al. (Pharmacol., 1996, 53:356). Briefly, male dogs were instrumented for chronic continuous measurement of arterial blood pressure by implanting a telemetry transmitter (TL11M2-D70-PCT, Data Sci. International, St. Paul, Minn. USA) into the femoral artery, two weeks prior to the study. During the recovery period, the animal was acclimatized to stay in the sling restraint. On the day of testing, overnight fasted animal was placed in the sling restraint. A Swan-Ganz. Balloon tipped catheter was introduced into the urethra at the level of prostate and the balloon was inflated (Brune. et. al. 1996). After recording the base line readings, effect of 16 μg/kg, phenylephrine (i.v.) on MAP and IUP was recorded. The response of phenylephrine to MAP and […] were recorded at 0.5, 1, 2, 3, 4, 6, 9 and 24 hours after the oral administration of vehicle or the test drug. The changes in MAP were recorded on line using Dataquest Software (Data Sci. International, St. Paul, Minn. USA). The change in phenylephrine response on […] administration after the test drug administration was calculated as percent change of that of control values. Area under curve was calculated, and the ratio of the values for MAP and IUP was used for calculating the uroselectivity (Table III).

The target of series [2] is T1, α1A adrenoceptor (prostate) (Rattus norvegicus, UniProt P43140).
T1 construct: from tissue; host or cells: isolated prostate tissue
T1 sequence (P43140 1-466): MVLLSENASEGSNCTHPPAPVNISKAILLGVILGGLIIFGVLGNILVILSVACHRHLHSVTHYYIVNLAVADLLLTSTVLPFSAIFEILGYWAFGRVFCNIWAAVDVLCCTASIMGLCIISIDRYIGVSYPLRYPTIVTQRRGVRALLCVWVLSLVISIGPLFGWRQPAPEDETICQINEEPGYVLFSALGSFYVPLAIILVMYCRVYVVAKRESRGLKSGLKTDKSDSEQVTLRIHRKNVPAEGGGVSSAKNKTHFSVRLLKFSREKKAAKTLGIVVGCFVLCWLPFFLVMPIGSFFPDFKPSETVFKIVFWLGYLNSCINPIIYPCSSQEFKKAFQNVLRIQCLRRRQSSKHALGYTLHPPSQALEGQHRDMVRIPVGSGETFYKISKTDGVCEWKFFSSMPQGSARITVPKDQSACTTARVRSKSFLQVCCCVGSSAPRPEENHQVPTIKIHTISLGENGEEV
Put plainly: In vitro functional assay, isolated prostate, phenylepinephrine contraction. Type of series: cell-based. Particulars: for Selectivity α1B/α1A / Selectivity α1D/α1A: functional, from pKB; for Kb: rat prostate, phenylepinephrine, read-out: α Adrenoceptor Subtype (pKB) α1A (converted). The text has this: (§1) In order to study selectivity of action of these compounds towards different a-adrenoceptor subtypes, the ability of these compounds to antagonise (α1D) prostate (α1A) and spleen (α1B) was studied. Aorta and spleen tissues were isolated from urethane anaesthetized (1.5 g/kg) male wister rats. Isolated tissues were mounted in organ bath containing Krebs Henseleit buffer of the following composition (mM): NaCl 118; KCl 4.7; CaCl2 2.5; MgSO4 7H2O 1.2; NaHCO3 25; KH2PO4 1.2; glucose 11.5. Buffer was maintained at 37° C. and aereated with a mixture of 95% O2 and 5% CO2. A resting tension of 2 g (aorta) or 1 g (spleen and prostate) was applied to tissues. Contractile response was monitored using a force displacement transducer and recorded on chart recorders. Tissues were allowed to equilibrate for 2 hours. At the end of equilibration period, concentration response curves to norepinephrine (aorta) and phenylepinephrine (spleen and prostate) were obtained in the absence and presence of tested compound (at concentration of […]). Antagonist affinity was calculated and expressed as pKB values in Table II.

Series [3] has as its target T2, α1A adrenoceptor (Rattus norvegicus, UniProt P43140).
T2 construct: from tissue; host or cells: rat submaxillary gland membranes
T2 sequence (P43140 1-466): T1 sequence (P43140 1-466)
The series is described as follows: Radioligand binding, [3H] prazosin displacement, rat submaxillary membranes. Particulars: for Ki: [3H] prazosin displacement, rat submaxillary membranes, read-out: Affinity (Ki) α1A (Rat Submaxillary); for α1B/α1A: ratio of binding affinities, rat liver / rat submaxillary. In short, it runs like this: (§2)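 Rat membranes (submaxillary for α1A, liver for α1B; 150-250 μg protein) incubated with [3H]prazosin and compound in Tris 50 mM/EDTA 5 mM pH 7.4, 1 h at 24-25° C. Nonspecific binding with 300 nM prazosin; filtration, counting; Ki via Cheng–Prusoff.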

Series [4] has as its target T3, α1B adrenoceptor (spleen) (Rattus norvegicus, UniProt P15823).
T3 construct: Isolated tissues were mounted in organ bath containing Krebs Henseleit buffer; from tissue; host or cells: isolated rat spleen
T3 sequence (P15823 1-515): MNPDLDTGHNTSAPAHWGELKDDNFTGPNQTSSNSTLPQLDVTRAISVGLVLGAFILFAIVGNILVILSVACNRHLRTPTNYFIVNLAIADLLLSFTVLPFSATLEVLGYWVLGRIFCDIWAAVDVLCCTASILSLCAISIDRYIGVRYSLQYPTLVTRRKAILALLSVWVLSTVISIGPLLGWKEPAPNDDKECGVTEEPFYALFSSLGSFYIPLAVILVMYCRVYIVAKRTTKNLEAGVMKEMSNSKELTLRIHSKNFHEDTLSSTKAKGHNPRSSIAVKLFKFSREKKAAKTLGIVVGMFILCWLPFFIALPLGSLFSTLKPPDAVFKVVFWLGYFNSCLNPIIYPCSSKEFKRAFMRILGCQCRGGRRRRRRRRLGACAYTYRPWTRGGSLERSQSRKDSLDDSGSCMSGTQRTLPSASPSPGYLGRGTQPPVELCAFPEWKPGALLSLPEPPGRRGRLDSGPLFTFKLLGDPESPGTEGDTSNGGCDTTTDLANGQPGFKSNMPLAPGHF
Put plainly: In vitro functional assay, isolated spleen, phenylepinephrine contraction. Format: cell-based. To be noted: read-out: α Adrenoceptor Subtype (pKB) α1B (converted).
From the text: as §1

For series [5], the target named is T4, α1B adrenoceptor (Rattus norvegicus, UniProt P15823).
T4 construct: from tissue; host or cells: rat liver membranes
T4 sequence (P15823 1-515): T3 sequence (P15823 1-515)
Put plainly: Radioligand binding, [3H] prazosin displacement, rat liver membranes. Particulars: read-out: Affinity (Ki) α1B (Rat Liver). In short, it runs like this: as §2

In series [6] the target is T5, α1D adrenoceptor (aorta) (Rattus norvegicus, UniProt P23944).
T5 construct: Isolated tissues were mounted in organ bath containing Krebs Henseleit buffer; from tissue; host or cells: isolated rat aorta
T5 sequence (P23944 1-561): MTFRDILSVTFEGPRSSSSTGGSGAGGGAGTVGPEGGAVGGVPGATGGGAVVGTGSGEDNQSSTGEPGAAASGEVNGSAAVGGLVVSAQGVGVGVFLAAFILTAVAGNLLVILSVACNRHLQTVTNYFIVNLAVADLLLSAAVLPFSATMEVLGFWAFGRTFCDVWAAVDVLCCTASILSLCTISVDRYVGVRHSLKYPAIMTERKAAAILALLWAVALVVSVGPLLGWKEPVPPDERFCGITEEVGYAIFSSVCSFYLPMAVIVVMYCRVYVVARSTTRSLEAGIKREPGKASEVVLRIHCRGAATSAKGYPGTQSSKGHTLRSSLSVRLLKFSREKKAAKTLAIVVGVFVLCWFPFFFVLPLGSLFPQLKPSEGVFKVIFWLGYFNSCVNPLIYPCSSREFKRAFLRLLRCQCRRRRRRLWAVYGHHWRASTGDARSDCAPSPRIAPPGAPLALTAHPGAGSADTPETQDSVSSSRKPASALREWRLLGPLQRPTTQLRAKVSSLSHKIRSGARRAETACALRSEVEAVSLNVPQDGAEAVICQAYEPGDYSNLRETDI
The series is described as follows: In vitro functional assay, isolated aorta, norepinephrine contraction. Format: cell-based. Particulars: read-out: α Adrenoceptor Subtype (pKB) α1D (converted).
From the text: as §1

[7] abbreviates: percent change of phenylephrine response over 24 hours.

Structures can show the parent of a compound that is named as a salt.

Consider `CCOc1ccccc1OCCN[C@H](C)Cc1ccc(OC)c(S(N)(=O)=O)c1` (racemic) [Tamsulosin (SR), Tamsulosin, reference compound], for which, in series [1], the “Uroselectivity Ratio IUP/MAP” value is reported as 1.47. In series [1] (setting [7]), the “Area Under Curve IUP” value is reported as 592 and the “Area Under Curve MAP” value is 868.
On to `CC(=O)OC1C=CCC2C(=O)N(CCCN3CCN(c4ccccc4OC(C)C)CC3)C(=O)C12` (stereo not drawn) (as salt: hydrochloride) [Compound No. 40, 2-[3-{4-(2-Isopropoxyphenyl)piperazin-1-yllpropyl]4-acetoxy-3a,4,7,7a-tetrahydro-1H-isoindole-1,3(2H)-dione hydrochloride], for which the melting point was in the range of 224 to 227 °C.
Turning to `O=C1CCCC(=O)N1CCCN1CCN(c2ccccc2OCC(F)(F)F)CC1` [compound 03], in series [2], the “Selectivity α1B/α1A” value was 0.7, the “Selectivity α1D/α1A” value worked out at 0.38 and the Kb is 0.389 nM. Further, in series [3], the Ki was 0.26 nM and the α1B/α1A was found to be 181. Further, the Kb in series [4] is 0.275 nM. Also, the Ki in series [5] was 47 nM. Further, the Kb in series [6] is 0.148 nM.
Consider `CC(C)Oc1ccccc1N1CCN(CCCN2C(=O)C3CCC(O)CC3C2=O)CC1` (stereo not drawn) [Compound No. 20, 2-[3-{4-(2-Isopropoxyphenyl)piperazin-1-yl}propyl]-5-hydroxy-3a,4,5,6,7,7a-hexahydro-1H-isoindole-1,3(2H)-dione], for which, in series [2], the “Selectivity α1B/α1A” value stood at 240, the “Selectivity α1D/α1A” value is 2.5 and the Kb was 0.427 nM. Moreover, in series [3], the Ki came to 0.28 nM and the α1B/α1A was found to be 328. Moreover, the Kb in series [4] is 102 nM. Further, the Ki in series [5] was determined as 92 nM. In series [6], the Kb is 1.07 nM.
Regarding `CC(C)Oc1ccccc1N1CCN(CCCN2C(=O)C3CC4OC4CC3C2=O)CC1` (stereo not drawn) [Compound No. 19, 2-[3-{4-(2-Isopropoxyphenyl)piperazin-1-yl}propyl]-5,6-epoxy-3a,4,5,6,7,7a-hexahydro-1H-isoindole-1,3(2H)-dione], the “Selectivity α1B/α1A” value in series [2] was 87. Also, the “Selectivity α1D/α1A” value in series [2] was determined as 3.4. For the same compound, the values for the Kb in series [2], in series [4] and in series [6] were 0.794 nM, 69.2 nM and 2.69 nM, respectively. Also, the values for the Ki in series [3] and in series [5] were 0.23 nM and 104 nM, respectively. The α1B/α1A in series [3] amounted to 452.
For `Cl.O=C1C2CC=CCC2C(=O)N1CCCN1CCN(c2ccccc2OCC(F)(F)F)CC1` (stereo not drawn) [compound 02, 2-[3-{4-(2-(2,2,2-Trifluoroethoxy)phenyl)piperazin-1-yl}propyl]-3a, 4,7,7a-tetrahydro-1H-isoindole-1,3(2H)-dione hydrochloride], in series [2], the “Selectivity α1B/α1A” value is reported as 7.07, the “Selectivity α1D/α1A” value was 0.17 and the Kb was 0.182 nM. Moreover, in series [3], the Ki was determined as 0.17 nM and the α1B/α1A amounted to 159. Further, the Kb in series [4] is 1.29 nM. Also, the Ki in series [5] stood at 27 nM. The Kb in series [6] was 0.0316 nM.
On to `Cl.O=C1CCCC(=O)N1CCCN1CCN(c2ccccc2O)CC1` [compound 01, 1-[4-(2-Hydroxyphenyl)piperazin-1-yl]-3-(2,6-dioxopiperidin-1-yl)propane hydrochloride], for which, in series [2], the “Selectivity α1B/α1A” value was 3.8. The “Selectivity α1D/α1A” value in series [2] is reported as 1.2. Moreover, the Kb in series [2] is 10 nM; in series [4] it was 38 nM; in series [6], 12 nM. Also, the results for the Ki in series [3] and in series [5] were 8.55 nM and 80 nM, respectively. Besides, the α1B/α1A in series [3] was 9.
As to `Cl.O=C1C2CC=CCC2C(=O)N1CCCN1CCN(c2ccccc2OC2CCCC2)CC1` (stereo not drawn) [Compound No. 43, 2-[3-{4-(2-Cyclopentyloxyphenyl)piperazin-1-yl}propyl]-3a,4,7,7a-tetrahydro-1H-isoindole-1,3(2H)-dione hydrochloride], in series [2], the “Selectivity α1B/α1A” value was 7.4, the “Selectivity α1D/α1A” value is 0.43 and the Kb was 1.7 nM. In series [3], the Ki turned out to be 0.5 nM and the α1B/α1A was 100. In addition, in series [4], the Kb was 12.6 nM. In addition, the Ki in series [5] was found to be 50 nM. Also, the Kb in series [6] is 0.741 nM.
Turning to `CC(C)Oc1ccccc1N1CCN(CC(O)CN2C(=O)C3CC=CCC3C2=O)CC1.Cl` (stereo not drawn) [compound 07, 2-[3-{4-(2-Isopropoxyphenyl)piperazin-1-yl}-2-hydroxypropyl]-3a,4,7,7a-tetrahydro-1H-isoindole-1,3(2H)-dione hydrochloride], in series [2], the “Selectivity α1B/α1A” value is given as 13, the “Selectivity α1D/α1A” value is given as 1.9 and the Kb was 1.23 nM. Besides, in series [3], the Ki was found to be 0.56 nM and the α1B/α1A worked out at 189. In series [4], the Kb is 15.8 nM. Also, the Ki in series [5] turned out to be 106 nM. Besides, in series [6], the Kb is 2.29 nM.
